Measurements as given in US6340689B1 (priority 1999, dated 2002).

Assays:
[1] = test system: Erythromycin-resistant L. pneumophila; format: cell-based, Legionella pneumophila
[2] = test system: Erythromycin-resistant Legionella spp. other than L. pneumophila; format: cell-based

Structure (SMILES) | Mean PAE [1] [h] | PAE (mean PAE) [1] [h] | Mean PAE [2] [h] | PAE [1] [h]
CO/N=C1\CN(c2nc3c(cc2F)c(=O)c(C(=O)O)cn3C2CC2)CC1CN (racemic) [Gemifloxacin, (R,S)-7-(3-aminomethyl-4-methoxyiminopyrrolidin-1-yl)-1-cyclopropyl-6-fluoro-4-oxo-1,4-dihydro-1,8-naphthyridine-3-carboxylic acid] | 4.65 ± 3 | 4.65 | 3.34 ± 2 | –
CC[C@H]1OC(=O)[C@H](C)[C@@H](O[C@H]2C[C@@](C)(OC)[C@@H](O)[C@H](C)O2)[C@H](C)[C@@H](O[C@@H]2O[C@H](C)C[C@H](N(C)C)[C@H]2O)[C@](C)(OC)C[C@@H](C)C(=O)[C@H](C)[C@@H](O)[C@]1(C)O [Clarithromycin] | 1.90 ± 1 | – | 1.60 ± 2 | 1.9
O=C(O)c1cn(C2CC2)c2cc(N3CCNCC3)c(F)cc2c1=O [Ciprofloxacin] | 2.86 ± 2 | – | 2.13 ± 3 | –
C[C@H]1COc2c(N3CCN(C)CC3)c(F)cc3c(=O)c(C(=O)O)cn1c23 [Levofloxacin] | 2.59 ± 2 | – | 3.24 ± 1 | 2.59
CC1COc2c(N3CCN(C)CC3)c(F)cc3c(=O)c(C(=O)O)cn1c23 (centres unmarked) [Ofloxacin] | 2.99 ± 1 | – | 4.13 ± 2 | –
Cc1c(F)c(N2CCNC(C)C2)cc2c1c(=O)c(C(=O)O)cn2C1CC1 (centres unmarked) [Grepafloxacin] | 4.18 ± 3 | 4.18 | 3.67 ± 1 | –
CO[C@H]1/C=C/O[C@@]2(C)Oc3c(C)c(O)c4c(O)c(c(/C=N/N5CCN(C)CC5)c(O)c4c3C2=O)NC(=O)/C(C)=C\C=C\[C@H](C)[C@H](O)[C@@H](C)[C@@H](O)[C@@H](C)[C@H](OC(C)=O)[C@@H]1C [Rifampicin] | 0.93 ± 4 | – | 5.6 ± 3 | 0.9
CC[C@H]1OC(=O)[C@H](C)[C@@H](O[C@H]2C[C@@](C)(OC)[C@@H](O)[C@H](C)O2)[C@H](C)[C@@H](O[C@@H]2O[C@H](C)C[C@H](N(C)C)[C@H]2O)[C@](C)(O)C[C@@H](C)CN(C)[C@H](C)[C@@H](O)[C@]1(C)O [Azithromycin] | 2.16 ± 1 | – | 2.13 ± 1 | –
COc1c(N2C[C@@H]3CCCN[C@@H]3C2)c(F)cc2c(=O)c(C(=O)O)cn(C3CC3)c12 [Moxifloxacin] | 3.38 ± 2 | 3.38 | 2.02 ± 1 | –
CC[C@H]1OC(=O)[C@H](C)[C@@H](O[C@H]2C[C@@](C)(OC)[C@@H](O)[C@H](C)O2)[C@H](C)[C@@H](O[C@@H]2O[C@H](C)C[C@H](N(C)C)[C@H]2O)[C@](C)(O)C[C@@H](C)C(=O)[C@H](C)[C@@H](O)[C@]1(C)O [Erythromycin] | 0.90 ± 1 | – | 0.44 ± 1 | –
N[C@@H]1[C@H]2CN(c3nc4c(cc3F)c(=O)c(C(=O)O)cn4-c3ccc(F)cc3F)C[C@@H]12 [Trovafloxacin] | 2.83 ± 2 | 2.83 | 2.25 ± 2 | –
